These molecules were tested on testosterone-enhanced ventral prostate and seminal vesicle weights (assay: Ventral Prostate and Seminal Vesicle Weight in vivo Assay). Conditions: immature castrated male Sprague Dawley rats, once daily for five days, usually orally 40 mg/kg, with testosterone propionate 2 mg/kg s.c.
Parameters: species or system rat
Procedure: Immature (approximately 50 g) castrated male Sprague Dawley rats (Charles River) were treated once daily for five days with test compound (usually given orally at 40 mg/kg in a volume of 0.3 mL, in 30% cyclodextrin or 0.5% methylcellulose vehicle) and with testosterone propionate (given subcutaneously by injection at the nape of the neck at 2 mg/kg, in a volume of 0.1 mL in sesame oil). On the sixth day, the rats were euthanized by asphyxiation in carbon dioxide. Ventral prosatates and seminal vesicles were removed and their wet weights determined.
A test compound was said to be “active” if the non weight adjusted prostate weight was ≦40 mg or the % Inhibition prostate weight, body weight adjusted was ≧40% @ 2 mg/day dosage.
Note: key: 'active' if the non weight adjusted prostate weight was ≦40 mg or the % Inhibition prostate weight, body weight adjusted was ≧40% @ 2 mg/day dosage; ID50's, if determined, of ≦15 mg/day also indicated an 'active' compound; listed herein as 'inactive' as they did not meet the specified criteria defined above.

| SMILES | active / inactive: inhibition of testosterone-enhanced prostate weight |
| --- | --- |
| CCSCC(C)(O)c1cc2cc(C#N)c(C)cc2[nH]1 (racemic) [Compound 446] | inactive |
| CCSCC(C)(O)c1cc2cc(Cl)c(C#N)cc2[nH]1 (single isomer, unassigned) [Compound 228] | inactive |
| CCS(=O)(=O)CC(C)(O)c1cc2cc([N+](=O)[O-])c(C(F)(F)F)cc2n1C (single isomer, unassigned) [Compound 232] | active |
| CCSCC(C)(O)c1[nH]c2cc(C(F)(F)F)c([N+](=O)[O-])cc2c1I (single isomer, unassigned) [Compound 241] | inactive |
| CCSCC(C)(O)c1[nH]c2cc(C(F)(F)F)c([N+](=O)[O-])cc2c1I (single isomer, unassigned) [Compound 244] | active |
| CCS(=O)(=O)CC(C)(O)c1cc2cc([N+](=O)[O-])c(C(F)(F)F)cc2n1C (single isomer, unassigned) [Compound 250] | active |
| CCSCC(C)(O)c1c(C)c2cc(C#N)c(C(F)(F)F)cc2n1C (single isomer, unassigned) [Compound 317] | inactive |
| CCSCC(C)(O)c1c(C)c2cc(C#N)c(C(F)(F)F)cc2n1C (single isomer, unassigned) [Compound 318] | inactive |
| CC(O)(c1[nH]c2cc(C(F)(F)F)c(C#N)cc2c1Cl)C(F)(F)F (single isomer, unassigned) [Compound 345] | active |
| CC(O)(c1[nH]c2cc(C(F)(F)F)c(C#N)cc2c1C#C[Si](C)(C)C)C(F)(F)F (single isomer, unassigned) [Compound 347] | active |
| CCSCC(C)(O)c1[nH]c2cc(C(F)(F)F)c(C#N)cc2c1I (single isomer, unassigned) [Compound 349] | active |
| CCc1c(C(C)(O)CS(=O)(=O)CC)[nH]c2cc(C(F)(F)F)c(C#N)cc12 (single isomer, unassigned) [Compound 354] | active |
| CCS(=O)(=O)CC(C)(O)c1cc2cc(C#N)c(C(F)(F)F)cc2[nH]1 (single isomer, unassigned) [Compound 397] | inactive |
| CCSCC(C)(O)c1cc2cc(C#N)ncc2[nH]1 (stereo not shown) [Compound 7] | inactive |
| CCSCC(O)(CSCC)c1cc2cc([N+](=O)[O-])c(C(F)(F)F)cc2[nH]1 [Compound 13] | inactive |
| CC(O)(CS(=O)(=O)c1ccc(F)cc1)c1cc2cc(Cl)c(C(F)(F)F)cc2[nH]1 (stereo not shown) [Compound 85] | inactive |
| CCSCC(C)(O)c1cc2cc(N)c(C(F)(F)F)cc2[nH]1 (stereo not shown) [Compound 166] | inactive |
| CC(C)(O[Si](C)(C)C)c1cc2cc([N+](=O)[O-])c(C(F)(F)F)cc2n1S(C)(=O)=O [Compound 269] | inactive |
| CC(C)(O[Si](C)(C)C)c1cc2cc(Cl)c(C(F)(F)F)cc2n1S(C)(=O)=O [Compound 270] | inactive |
| CC(C)(O)c1cc2cc([N+](=O)[O-])c(C(F)(F)F)cc2n1S(C)(=O)=O [Compound 273] | inactive |
| CC(C)(O)c1cc2cc([N+](=O)[O-])c(C(F)(F)F)cc2[nH]1 [Compound 274] | inactive |
| CC(C)(O)c1[nH]c2cc(C(F)(F)F)c([N+](=O)[O-])cc2c1Cl [Compound 275] | active |
| CC(C)(O)c1[nH]c2cc(C(F)(F)F)c([N+](=O)[O-])cc2c1I [Compound 276] | active |

| SMILES | active / inactive: inhibition of testosterone-enhanced prostate weight |
| --- | --- |
| CC(C)(O)c1[nH]c2cc(C(F)(F)F)c([N+](=O)[O-])cc2c1Br [Compound 277] | active |
| CC(C)(O)c1[nH]c2cc(C(F)(F)F)c(C#N)cc2c1I [Compound 278] | active |
| CC(C)(O)c1[nH]c2cc(C(F)(F)F)c(Cl)cc2c1I [Compound 279] | inactive |
| CC(C)(O)c1[nH]c2cc(C(F)(F)F)c(Cl)cc2c1Br [Compound 280] | inactive |
| C=Cc1c(C(C)(C)O)[nH]c2cc(C(F)(F)F)c([N+](=O)[O-])cc12 [Compound 281] | inactive |
| CC(C)(O)c1[nH]c2cc(C(F)(F)F)c(Cl)cc2c1Cl [Compound 282] | inactive |
| CC(C)(O)c1cc2cc(Cl)c(C(F)(F)F)cc2n1S(C)(=O)=O [Compound 284] | active |
| CC(C)(O)c1cc2cc(Cl)c(C(F)(F)F)cc2[nH]1 [Compound 285] | inactive |
| CC(C)(O)c1[nH]c2cc(C(F)(F)F)c(C#N)cc2c1Cl [Compound 287] | inactive |
| CC(C)(O)c1[nH]c2cc(C(F)(F)F)c(C#N)cc2c1Br [Compound 288] | active |
| Cc1c(C(C)(C)O)[nH]c2cc(C(F)(F)F)c(C#N)cc12 [Compound 289] | active |
| Cc1c(C(C)(C)O)[nH]c2cc(C(F)(F)F)c([N+](=O)[O-])cc12 [Compound 290] | inactive |
| CC(C)(O)c1[nH]c2cc(C(F)(F)F)c([N+](=O)[O-])cc2c1C#N [Compound 291] | active |
| CC(C)(O)c1cc2cc(Br)ccc2[nH]1 [Compound 294] | inactive |
| CC(C)(O)c1[nH]c2cc(C(F)(F)F)c(C#N)cc2c1C#N [Compound 295] | inactive |
| CC(O)(c1cc2cc(C#N)c(C(F)(F)F)cc2[nH]1)C(F)(F)F (stereo not shown) [Compound 329, 2-(2,2,2-Trifluoro-1-hydroxy-1-methyl-ethyl)-6-trifluoromethyl-1H-indole-5-carbonitrile] | active |
| CC(O)(c1cc2cc(C#N)c(C(F)(F)F)cc2[nH]1)C(F)(F)F (stereo not shown) [Compound 334, 2-(2,2,2-Trifluoro-1-hydroxy-1-methyl-ethyl)-6-trifluoromethyl-1H-indole-5-carbonitrile] | active |
| CC(O)(c1cc2cc(C#N)c(C(F)(F)F)cc2[nH]1)C(F)(F)F (stereo not shown) [Compound 335, 2-(2,2,2-Trifluoro-1-hydroxy-1-methyl-ethyl)-6-trifluoromethyl-1H-indole-5-carbonitrile] | active |
| N#Cc1cc2cc(C(O)(C(F)(F)F)C(F)(F)F)[nH]c2cc1C(F)(F)F [Compound 357] | active |
| CC(C)(O)c1cc2cc(Cl)c(Cl)cc2[nH]1 [Compound 405] | inactive |
| CC(O)(COc1ccc(C#N)cc1)c1cc2cc(C#N)c(C(F)(F)F)cc2[nH]1 (stereo not shown) [Compound 426, 2-[2-(4-Cyano-phenoxy)-1-hydroxy-1-methyl-ethyl]-6-trifluoromethyl-1H -indole-5-carbonitrile] | inactive |
| CC(O)(COc1cccc([N+](=O)[O-])c1)c1cc2cc(C#N)c(C(F)(F)F)cc2[nH]1 (stereo not shown) [Compound 428, 2-[1-Hydroxy-1-methyl-2-(3-nitro-phenoxy)-ethyl]-6-trifluoromethyl-1H -indole-5-carbonitrile] | inactive |
| CC(O)(COc1ccc(C#N)c(C(F)(F)F)c1)c1cc2cc(C#N)c(C(F)(F)F)cc2[nH]1 (stereo not shown) [Compound 429, 2-[2-(4-Cyano-3-trifluoromethyl-phenoxy)-1-hydroxy-1-methyl-ethyl]-6-trifluoromethyl-1H-indole-5-carbonitrile] | inactive |

— patent US7282507B2, “Indole derivatives as selective androgen receptor modulators (SARMS)” (Janssen Pharmaceutica N.V., priority 2004, dated 2007)
